One substance from US11896704B2, “Compounds useful for the treatment and/or care of the skin, hair, nails and/or mucous membranes” (LUBRIZOL ADVANCED MATERIALS, INC., priority 2017, dated 2024) can be followed below.

One assay concerns JARID1A gene. The assay is described as follows: JARID1A gene expression in synchronized human epidermal keratinocytes (HEKa), real time PCR arrays. It counts as cell-based. As to conditions: 0.5 mg/ml, one experiment. On the procedure: In Vitro Study of JARID1A Gene Expression in Synchronized Human Epidermal Keratinocytes from Adult (HEKa) Using Real Time PCR Arrays.
HEKa cells (Life Technologies) are seeded at 3.0×10^5 cells/well in 12-well plates (2 wells per condition) and incubated in culture medium, Keratinocyte growth medium supplemented with Mix C39016-CaCl2 solution (Promocell). For synchronization, cells were subjected to two alternative cycles of 12 hours each at 37° C. in 5% CO2 humidified air (day mode) and 33° C. in 5% CO2 humidified air (night mode). 12 hours after starting synchronization, cells are incubated with the peptides at 0.5 mg/ml or (5 μg/ml) in culture medium, depending on the toxicity effects of each peptide (non-toxic conditions are selected). Cells treated with medium alone are used as basal condition.
At the end of synchronization, cell lysates are collected at two different times: 7:30 hour (early morning point) and 11:30 hour (midday point). Briefly, cells are lysed directly in the wells, and RNA is purified following the protocol described on the RNeasy™ Mini kit (Qiagen) according to the manufacture's protocol. After RNA elution, quantification and analysis of purity of RNA samples are performed with a nanodrop (Thermo). For each sample, 3 μg of high quality RNA is retrotranscribed with iScript Advanced™ (BioRad) in a final volume of 20 μl. Complete reaction mix is incubated in a thermal cycler (Eppendorf) at 42° C. for 30 minutes, and the reaction is stopped at 85° C. for 5 minutes. Complementary DNA is amplified by qPCR in a real-time PCR thermocycler (BioRad) using SYBR Green Supermix™ (BioRad) in the 96-well plate for use with SYBR® Green (BioRad). SYBR Green binds to double-stranded DNA molecules and emits fluorescence which is quantified, and the fluorescence intensity is proportional to the amount of the product in the PCR reaction. Cycling conditions in BioRad CFX96™ instrument are: 95° C. for 3 minutes, followed by 40 cycles of denaturing at 95° C. for 5 seconds, annealing and elongation at 60° C. for 30 seconds. GAPDH (Glyceraldehyde 3-phosphate dehydrogenase), TBP (TATA box binding protein) and HRPT1 (hypoxanthine phosphoribosyltransferase 1) are used as endogenous controls. Fold change relative to the expression of the sample genes and reference genes is calculated using normalized expression (AA(Ct)) method using CFX Manager Software™ (BioRad).
Fold induction of JARID1A gene at 7:30 hour with respect to basal conditions at 7:30 hour for the samples tested are shown in Table 7. The data for fold induction represent the value of one experiment.
In general terms: Quantitative PCR measures a nucleic acid by following its amplification.

Assay [1] relates to Phenion Full-Thickness Skin models. The assay is described as follows: Hydration level in synchronized human full-thickness skin models. The class given is cell-based. As to conditions: 0.5 mg/ml, 48 hours of treatment, one assay. On the procedure:
Measurement of Hydration Level in Synchronized Human Full-Thickness Skin Models.
Immediately after arrival, the Phenion® Full-Thickness Skin models (HENKEL) are placed in Petri dishes (5 skin models per condition) according to the supplier's instructions in ALI medium (HENKEL). After 72 hours incubation at 37° C., 5% CO2, a synchronization protocol is initialized. For this purpose, skin models are subjected to two alternative cycles of 12 hours each at 37° C. in 5% CO2 humidified air (day mode) and 33° C. in 5% CO2 humidified air (night mode). At the beginning of the synchronization, pre-treatment measurement of hydration at 7:30 hours is tested in skin models. Hydration measurements of the epidermis are performed with DPM 9003 BT™ (NOVA® Technology Corporation) and with MoistureMeter SC™ (Delphin). For pre-treatment measurements, skin model's surface is washed with 5 ml of Phosphate Buffered Saline (PBS, Sigma). […]
The results in Table 13 show the mean of the percentage of hydration levels at 7:30 hours after 48 hours of treatment relative to hydration levels in basal conditions. […] These values are calculated for one assay. […]
The results in Table 14 represent the mean of the percentage of hydration levels at 7:30 hours after 48 hours of treatment relative to hydration levels in basal conditions at the same time. […] These values are calculated for one assay. […]

Consider “H-Phe-Trp-Met-Lys-Arg-Lys-Arg-Val-Pro-NH2 (H-FWMKRKRVP-NH2) [PEP-1]”, for which the “Fold induction with respect to Basal condition at 7:30h (%)” value with JARID1A gene was 212.39%. The “Hydration level (%)” value in assay [1] (7:30 h, relative to basal conditions 7:30 h, MoistureMeter SC) came to 110.1%. Moreover, the “Hydration level at 7:30 hours (%)” value in assay [1] (relative to basal conditions, DPM9003 BT) amounted to 131.6%.
